Results from article PMC9037180, “Ligand-based design and synthesis of N'-Benzylidene-3,4-dimethoxybenzohydrazide derivatives as potential antimicrobial agents; evaluation by in vitro, in vivo, and in silico approaches with SAR studies” (Journal of Enzyme Inhibition and Medicinal Chemistry, 2022).
In brackets after ≈: the same amount, converted by molar mass. Like-named read-outs stand apart in the source and are kept apart here.

Legend:
[1] = system: S. typhi; test: Minimal bactericidal concentration (MBC); assay type: cell-based; details: Salmonella enterica
[2] = system: NFKB2; assay type: in vivo, rats; details: Mean ± SE
Description: (§1) Rats were divided randomly into equal fifteen groups, each containing 9 rats as follows: • Group 1: Rats were kept on standard laboratory chow and water ad libitum to serve as a control. • Group 2: Rats have injected IP with sterile distilled water (4ml/kg) daily for one week to serve as a control. • Group 3: Rats have injected IP with DEMSO (dimethyl sulfoxide) (4 ml/kg) daily for one week to serve as a control. • Group 4: Rats have injected IP with 4h (1.9 mg/kg) daily for one week. • Group 5: Rats have injected IP with 4h (3.8 mg/kg) daily for one week. • Group 6: Rats have injected IP with 4i (1.9 mg/kg) daily for one week. • Group 7: Rats have injected IP with 4i (3.8 mg/kg) daily for one week. • Group 8: Rats were infected by a single IM injection of S. aureus strain [1.0 ml) 1 × 10^7) colony-forming units]. • Group 9: Rats have injected IP with 4h (1.9 mg/kg) daily for one week on the 7th day after induction of infection by a single IM injection of S. aureus strain [1.0 ml (1 × 10^7) colony-forming units. • Group 10: Rats have injected IP with 4h (3.8 mg/kg) daily for one week on the 7th day after induction of infection by a single IM injection of S. aureus strain [1.0 ml (1 × 10^7) colony-forming units]. • Group 11: Rats were infected by a single IM injection of S. typhi strain [1.0 ml (1 × 10^7) colony forming units). • Group 12: Rats have injected IP with 4h (1.9 mg/kg) daily for one week. on the 7th day after induction of infection by a single IM injection of S. typhi strain [1.0 ml (1 × 10^7) colony-forming units]. • Group 13: Rats have injected IP with 4h (3.8 mg/kg) daily for one week on the 7th day after infection by a single IM injection of S. typhi strain [1.0 ml (1 × 10^7) colony-forming units]. • Group 14: Rats have injected IP with 4i (1.9 mg/kg) daily for one week. on the 7th day after induction of infection by a single IM injection of S. typhi strain [1.0 ml (1 × 10^7) colony-forming units]. • Group 15: Rats have injected IP with 4i (3.8 mg/kg) daily for one week. on the 7th day after induction of infection by a single IM injection of Salmonella strain [1.0 ml (1 × 10^7) colony-forming units].
Immunohistochemistry (IHC) was performed on paraffin sections and mounted on positively charged slides to detect caspase-3 as an indicator for apoptosis and nuclear factor kappa-light-chain-enhancer of activated B cells (NFKB2) for inflammation by using the avidin-biotin-peroxidase complex (ABC) method. The exact methodology was carried out as previously described in detail.
Caspase-3 and NFKB2 immunostaining were measured as area % in a standard measuring frame in representative five fields for each subject (liver and kidneys) in all groups using 100x magnification via light microscopy transferred to the screen. […]

[3] = system: S. aureus; test: Biochemical analysis in S. aureus-infected rats; assay type: in vivo; details: first and second dose (1.9 and 3.8 mg/kg IP daily for one week)
Description: The compounds 4h and 4j were dissolved in DMSO (dimethyl sulfoxide) then further dilutions were made by using sterile distilled water. The doses of both candidates were calculated according to the method given by Paget and Barnes[60]. Sterile distilled water, DEMSO, and investigated compounds (4h (1.9 and 3.8 mg/kg) and 4j (1.9 and 3.8 mg/kg)) were injected in a volume of 4 ml/kg[61]. The experiment lasts two weeks, the 1st week for induction of infection in the infected groups and the 2nd week for the administration of the compounds in all groups. […]
ALT and AST were determined[66] using commercial kits obtained from Diamond Diagnostics, Egypt.
Serum urea was determined by using the modified Berthelot–Searcy method. Serum creatinine activity was also assessed by using the application of Jaffe’s reaction.
Serum levels of the pro-inflammatory cytokine, TNF-α, were determined by the quantitative enzyme immunoassay (EIA) kit purchased from R&D Systems (USA) according to the method of Howard and Harada[69], while that of anti-inflammatory cytokine IL-10 was according to Croft et al.. […]

[4] = system: S. aureus; test: H&E histological examination of liver and kidney, S. aureus infected rats; assay type: in vivo
Description: as §1
At the end of the experiment, the animals were euthanized through cervical dislocation. After that, the liver and kidney were dissected for histological study. The procedure for histological preparations was described by Bancroft and Stevens[73]. Briefly, liver and kidney tissues were sliced to 3–4 mm thick, fixed in 10% neutral buffered formalin (10% NBF), dehydrated in graded concentrations of ethanol, cleared in xylene, and embedded in paraffin. The paraffin blocks were sectioned with a microtome at (4–6 μm) thickness and dyed with H & E stain to study the general tissue structure.

Row | Compound | MBC [1] [µM] | NFKB2, Kidney ([2]; S. typhi infected rats, 1.9 mg/kg IP daily for one week) [area %] | NFKB2, Kidney ([2]; S. typhi infected rats, 3.8 mg/kg IP daily for one week) [area %] | NFKB2, Kidney ([2]; uninfected rats, 1.9 mg/kg IP daily for one week) [area %] | NFKB2, Kidney ([2]; uninfected rats, 3.8 mg/kg IP daily for one week) [area %] | renal and liver functions, oxidative stress and inflammatory markers (urea, creatinine, ALT, AST, GSH, MDA, TNF-α, IL-10) [3] | kidney pathological changes (H&E) ([4]; high dose (3.8 mg/kg)) | liver pathological changes (H&E) ([4]; high dose (3.8 mg/kg)) | kidney pathological changes (H&E) ([4]; low dose (1.9 mg/kg)) | liver pathological changes (H&E) ([4]; low dose (1.9 mg/kg))
1 | COc1ccc(C(=O)NN=Cc2ccc3ccccc3n2)cc1OC [Compound 4i, N'-(quinolin-2-ylmethylene)-3,4-dimethoxybenzohydrazide] | 186 (≈ 62.5 µg/mL) | 28.693 ± 0.4494 | 11.91 ± 1.04 | 0.7513 ± 0.0671 | 0.4087 ± 0.08844 |  |  |  |  | 
2 | N'-((3a,7a-dihydro-1H-indol-3-yl)methylene)-3,4-dimethoxybenzohydrazide [Compound 4h] |  |  |  |  |  | significant improvement in all the measured parameters | marked improved renal tissue | marked improvement in the pathological changes | improved pathological changes | improved pathological changes
